Data set [1] concerns U87 glioblastoma cells. As to the kind of experiment: Tumor growth in the mouse model of glioblastoma, luciferase imaging with IVIS 200. Format: in vivo, SCID immuno-deficient mice. To be noted: 4 mg/kg daily intraperitoneally, FIG. 3A. The text has this:
(§1) In order to assess the efficacy of the liposome composition in delivering a therapeutic agent to the brain, glioblastoma in a mouse model was employed. Curcumin was integrated into liposomes comprising cholesterol: phosphatidyl phosphoric acid: phosphatidyl choline in molar ratios of 35:7:58. The targeting peptide was present at 0.5% by molar ratio, mol % or weight %, and the curcumin was at a final concentration of 1% by molar ratio, mol % or weight %. The resulting liposomes where lyophilized, hydrated and downsized into a diameter of 0.1 μm±20%.
(§2) These liposomes comprised cholesterol: phosphatidyl phosphoric acid: phosphatidyl choline in molar ratios of 40:5:55. The molar concentration of the drug and targeting peptide were unchanged.
As a model of glioblastoma, SCID immuno-deficient mice were implanted with U87 glioblastoma cells. The U87 cells had previously been transfected with a luciferase gene, such that upon intraperitoneally injection of the mice with luciferin, the cells would fluoresce, allowing for accurate quantification and imaging of the tumor using the IVIS 200 imaging system. The degree of fluorescence measured was proportional to the number of cancer cells, and therefore indicated the cancer growth. […]
By using the luciferase imaging system, quantification of the relative tumor size was possible (FIG. 3). […]

The test system of data set [2] is U87 glioblastoma cells. As to the kind of experiment: Survival studies in U87 transferred mice. Format: in vivo, SCID immuno-deficient mice.
Source text: as §1, §2
As a model of glioblastoma, SCID immuno-deficient mice were implanted with U87 glioblastoma cells. The U87 cells had previously been transfected with a luciferase gene, such that upon intraperitoneally injection of the mice with luciferin, the cells would fluoresce, allowing for accurate quantification and imaging of the tumor using the IVIS 200 imaging system. The degree of fluorescence measured was proportional to the number of cancer cells, and therefore indicated the cancer growth.
Curcumin and TMZ in targeted liposome carriers, were administered intraperitoneally to the mice 3 days after injection of the tumor cells and for at least 3 weeks. […]

The nature of data set [3]: Evaluation of liposome compositions for delivery of curcumin (solubility, drug stability, half-life). Format: physicochemical. The following applies: curcumin loaded in the cholesterol/PA/PC liposome formulation. The source says:
To test various liposome compositions, the water insoluble drug curcumin was employed as the therapeutic agent to be incorporated into the liposome. Curcumin, has been used for many clinical purposes, including as an antioxidant, antibacterial, anti-inflammatory agent, anti-neurodegenerative processes and anticancer agent. Curcumin however, is highly water-insoluble, has a very short biological half-life, and poor pharmacokinetics. Previous attempts at liposomes for the delivery of curcumin comprised cholesterol (Ch), 1,2-dioleyl-sn-glycero-3-phosphocholine (DOPC), 1,2-dioleyl-sn-glycero-3-phosphoethanolamine (DOPE), and 1,2-dioleoyl-sn-glycero-3-[phosphor-L-serine] (DOPS), usually in equimolar amounts.
Various compositions of liposomes for delivery of curcumin were tested and evaluated for drug loading, drug stability and half-life, and effective targeting in the body. […] The targeting peptide was dissolved in chloroform/methanol and added to the mixture at 0.1-2% by molar ratio, mol % or weight %.
Loading of the drug into the liposome was achieved by pre-dissolving the target drug during the preparation of the liposome, thereby enabling a desired and reproducible concentration of the drug in the most stabilized environment.

As to `Cn1nnc2c(C(N)=O)ncn2c1=O` [free TMZ, Temozolomide], the “latency period before tumor growth” value with U87 glioblastoma cells [1] is reported as 2 weeks. Moreover, the “survival time of all mice after tumor cell transfer” value in the data set with U87 glioblastoma cells [2] (daily dosing 4 mg/kg, FIG. 4) was at most 30 days.
As for `COc1cc(/C=C/C(=O)CC(=O)/C=C/c2ccc(O)c(OC)c2)ccc1O` [free curcumin, curcumin], in the data set with U87 glioblastoma cells [2] (4 mg drug/kg mouse daily), the “survival compared with control (in words)” value is listed as “survival was not significantly extended”. Moreover, in data set [3], the “degradation and biological half-life of the drug” value is “protect the drug from degradation and prolong its biological half-life”.

For the origin of these results see patent US20200129434A1, “LIPOSOME COMPOSITIONS AND USES THEREOF” (TECHNION RESEARCH & DEVELOPMENT FOUNDATION LIMITED, priority 2017, published 2020).
